Assay results: patent US5670508A, “2-amino-6-alkyl-5-(4-substituted-1-piperazinyl) pyrimidin-4-ones, the preparation and use thereof” (National Science Council, priority 1995, dated 1997)
Read-outs that look alike come from different tables or passages of the source.

Key:
[1] = test system: human lung cancer cell lines; experiment: Cytotoxicity, NCI disease-oriented antitumor screening, lung cancer cell lines; assay type: cell-based; conditions: range of GI50's for the lung cancer cell lines, read-out: Cytotoxic activity (GI50), lung
Excerpt: (§1) Compounds were subjected to the disease-oriented antitumor screening on 60 cancer cell lines in the National Cancer Institute of the U.S.A. (Grever, M. R. et al., Seminars in Oncology 1992, 19, 622~638). Results of cytotoxicity are summarized in Table 1, GI50 values represent the concentrations corresponding to 50% of growth inhibition.

[2] = test system: human colon cancer cell lines; experiment: Cytotoxicity, NCI disease-oriented antitumor screening, colon cancer cell lines; assay type: cell-based; conditions: range of GI50's for the colon cancer cell lines, read-out: Cytotoxic activity (GI50), colon
Excerpt: as §1

[3] = test system: human CNS tumor cell lines; experiment: Cytotoxicity, NCI disease-oriented antitumor screening, CNS tumor cell lines; assay type: cell-based; conditions: for selective cytotoxicity on human CNS tumor cell lines: in words
Excerpt: as §1

[4] = test system: CNS SNB75 cell line; experiment: Cytotoxicity, NCI disease-oriented antitumor screening, CNS SNB75 cell line; assay type: cell-based; conditions: Homo sapiens, SNB-75
Excerpt: as §1

[5] = test system: human ovarian cancer cell lines; experiment: Cytotoxicity, NCI disease-oriented antitumor screening, ovarian cancer cell lines; assay type: cell-based; conditions: range of GI50's for the ovarian cancer cell lines, read-out: Cytotoxic activity (GI50), ovarian
Excerpt: as §1

[6] = test system: human renal cancer cell lines; experiment: Cytotoxicity, NCI disease-oriented antitumor screening, renal cancer cell lines; assay type: cell-based; conditions: range of GI50's for the renal cancer cell lines, read-out: Cytotoxic activity (GI50), renal
Excerpt: as §1

[7] = test system: human prostate cancer cell lines; experiment: Cytotoxicity, NCI disease-oriented antitumor screening, prostate cancer cell lines; assay type: cell-based; conditions: range of GI50's for the prostate cancer cell lines, read-out: Cytotoxic activity (GI50), prostate
Excerpt: as §1

[8] = test system: human breast cancer cell lines; experiment: Cytotoxicity, NCI disease-oriented antitumor screening, breast cancer cell lines; assay type: cell-based; conditions: range of GI50's for the breast cancer cell lines, read-out: Cytotoxic activity (GI50), breast
Excerpt: as §1

[9] = test system: glycinamide ribonucleotide transformylase (GAR-Tfase); conditions: in words; Baldwin et al, 1991; cited from earlier work
[10] = test system: CNS U251 cell line; experiment: Cytotoxicity, NCI disease-oriented antitumor screening, CNS U251 cell line; assay type: cell-based; conditions: Homo sapiens, U-251, read-out: Cytotoxic activity (GI50), CNS
Excerpt: as §1

[11] = CNS SNB75 cell line, read-out: Cytotoxic activity (GI50), CNS
[12] = SNB75 CNS cell line, read-out: GI50

Row | SMILES | GI50 [1] [µM] | GI50 [2] [µM] | selective cytotoxicity on human CNS tumor cell lines [3] | GI50 [4, 11] [µM] | GI50 [5] [µM] | GI50 [6] [µM] | GI50 [7] [µM] | GI50 [8] [µM] | GI50 [4, 12] [µM] | GI50 ([3]; Homo sapiens, CNS cell lines, no single line specified, read-out: Cytotoxic activity (GI50), CNS) [µM] | inhibition of GAR-Tfase [9] | GI50 [10] [µM]
1 | Cc1nc(N)[nH]c(=O)c1N1CCN(c2ccc(S(N)(=O)=O)cc2)CC1 [Compound 12, 4-[4-(2-Amino-6-methyl-4-(3H)-oxopyrimidin-5-yl)-piperazin-1-yl]benzenesulfonamide] | > 100 | > 100 | selective cytotoxicity | 0.1 | > 100 | > 100 | > 100 | > 100 |  |  |  | 
2 | Cc1nc(N)[nH]c(=O)c1N1CCN(c2ccc(C#N)cc2)CC1 [Compound 6, 4-[4-(2-Amino-6-methyl-4(3H)-oxopyrimidin-5-yl)piperazin-1-yl]benzonitrile] | > 100 | > 100 | selective cytotoxicity | 0.04 | 93 | > 100 | > 100 | > 100 |  |  |  | 
3 | Cc1nc(N)[nH]c(=O)c1N1CCN(c2ccc([N+](=O)[O-])cc2)CC1 [Compound 10, 2-Amino-6-methyl-5-[4-(4-nitrophenyl)piperazin-1-yl]pyrimidin-4(3H)-one] | > 100 | > 100 | selective cytotoxicity | < 0.01 | > 100 | > 100 | > 100 | > 100 | < 0.01 |  |  | 
4 | Cc1nc(N)[nH]c(=O)c1N1CCN(c2ccc(C(=O)O)cc2)CC1 [Compound 7, 4-[4-(2-Amino-6-methyl-4(3H)-oxopyrimidin-5-yl)piperazin-1-yl]benzoic acid] | > 100 | > 100 |  |  | > 100 | 1.39 | > 100 | > 100 |  | > 100 |  | 
5 | CCOC(=O)CCC(NC(=O)c1ccc(N2CCN(c3c(C)nc(N)[nH]c3=O)CC2)cc1)C(=O)OCC (stereo not shown) [Compound 8, Diethyl N-[4-[4-(2-Amino-6-methyl-4(3H)-oxopyrimidin-5-yl)piperazin-1-yl]benzoyl]glutamic acid] | > 100 | > 100 | selective cytotoxicity | < 0.01 | > 100 | > 100 | > 100 | > 100 | < 0.01 |  |  | 
6 | Nc1nc2c(c(=O)[nH]1)CC(CCc1ccc(C(=O)N[C@@H](CCC(=O)O)C(=O)O)cc1)CN2 (stereo partly shown) [DDATHF, 5,10-dideaza-5,6,7,8-tetrahydrofolic acid] |  |  |  |  |  |  |  |  |  |  | potent inhibitor | 
7 | Cc1nc(N)[nH]c(=O)c1N1CCN(c2ccc(S(=O)(=O)N(Cc3ccccc3)Cc3ccccc3)cc2)CC1 [Compound 11] | 4.8 to 79 | 55 |  |  | 0.7 to 16 | 3.1 to 27 | 1.9 to 3.5 | 2.1 to 37 |  |  |  | 3.68
8 | Cc1nc(N)[nH]c(=O)c1N1CCN(c2ccc(C(=O)NC(CCC(=O)O)C(=O)O)cc2)CC1 (stereo not shown) [Compound 9, N-[4-[4-(2-Amino-6-methyl-4-(3H)-oxopyrimidin-5-yl)piperazin-1-yl]benzoyl]glutamic acid] | > 100 | > 100 | selective cytotoxicity | < 0.01 | > 100 | > 100 | > 100 | > 100 | < 0.01 |  |  | 
